US20240277767A1, “METHODS AND USES” (PROLEUKOCYTE AB, priority 2021, published 2024)

How the values were obtained:
Nrf2 = target: T1, Nrf2 (Homo sapiens, UniProt Q16236); settings: presumably via inhibition of TrxR (Saei et al., 2020); cited from earlier work
T1 sequence (Q16236 1-605): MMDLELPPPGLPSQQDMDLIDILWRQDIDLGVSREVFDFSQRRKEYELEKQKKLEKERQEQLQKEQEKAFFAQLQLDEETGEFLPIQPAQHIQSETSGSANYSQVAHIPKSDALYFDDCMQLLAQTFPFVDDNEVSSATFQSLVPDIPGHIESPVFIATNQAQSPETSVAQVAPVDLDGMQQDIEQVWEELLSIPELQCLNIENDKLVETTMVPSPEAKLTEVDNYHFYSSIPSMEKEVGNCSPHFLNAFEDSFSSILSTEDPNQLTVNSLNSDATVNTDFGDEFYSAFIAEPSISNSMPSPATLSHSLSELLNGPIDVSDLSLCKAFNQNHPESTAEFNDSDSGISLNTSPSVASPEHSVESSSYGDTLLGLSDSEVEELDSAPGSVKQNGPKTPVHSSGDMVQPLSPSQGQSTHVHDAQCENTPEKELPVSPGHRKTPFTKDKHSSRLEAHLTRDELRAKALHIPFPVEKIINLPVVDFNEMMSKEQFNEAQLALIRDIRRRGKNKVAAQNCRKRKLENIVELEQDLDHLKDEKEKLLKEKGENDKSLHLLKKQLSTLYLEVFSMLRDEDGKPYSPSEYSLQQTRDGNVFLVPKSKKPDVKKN

NK cells [1] = test: Phenotype analysis of NK cell surface markers (flow cytometry); format: cell-based, human
Procedure: All antibodies (see Table 1) and FACS reagents were used according to manufactures recommendation, if not stated otherwise. All antibodies had been titrated for optimal signal-to-noise ratio and all staining's were performed in PBS supplemented with 1% FBS. All staining's contained a live/dead marker. Samples were fixed with 2% PFA (Thermo scientific) for 15 min before acquired on a NovoCyte (ACEA Biosciences) and analysed using FlowJo Software (TreeStar).
For evaluating CD16 expression, NK cells were treated as described above. After H2O2 treatment, NK cells were incubated for 2 h in RPMI 2% AB serum, stained with anti-CD3, anti-CD56 and anti-CD16 and analyzed.

NK cells [2] = test: Degranulation (CD107a) and IFNγ expression of NK cells co-cultured with K562 cells (flow cytometry); format: cell-based, human; settings: for Degranulation capacity (CD107a expression) of NK cells after co-culture with K562: with and without induction of oxidative stress (H2O2)
Procedure: Lymphocytes were isolated and pre-treated when indicated, with compound and H2O2, as described above. For degranulation/measuring CD107a expression, NK cells were co-cultured with K562 tumour cells at an effector target ratio 1:1 in the presence of anti-CD107a in U-bottom plates. After 2 h, GolgiStop™ and GolgiPlug™ (BD Bioscience) were added and cells were harvested after an additional 4 h co-culture and stained for CD56 and CD3, as described above. For positive control, 25 ng/ml PMA (Sigma Aldrich) and 500 ng/mL Ionomycin (Sigma Aldrich) were added.
Lymphocytes were isolated and pre-treated when indicated, with compounds and/or H2O2, as described above. For degranulation assay, NK cells were co-cultured with K562 cells (E:T ratio 1:1) in the presence of anti-CD107a FITC antibody. After 2 h, GolgiStop™ and GolgiPlug™ (BD Bioscience) were added and cells were harvested after an additional 4 h co-culture and stained for CD56, CD3 and anti-IFNγ, as described above. As a positive control, 25 ng/ml PMA (Sigma Aldrich) and 500 ng/ml Ionomycin (Sigma Aldrich) were added.

cancer cells = settings: high doses (Stafford et al., 2018; Rigobello et al., 2008); cited from earlier work
NK cells [3] = test: Intracellular ROS levels in NK cells (CellROX, flow cytometry); format: cell-based, human
Procedure: For Nrf2 inhibition, NK cells were treated with 50 μM ML-385 (Sigma-Aldrich) in parallel. For H2O2 treatment, lymphocyte cells were washed and resuspended to 1×10^6 cells/mL in medium and exposed to indicated H2O2 (Sigma-Aldrich) concentration for 1 h at 37° C. Cells were washed with medium and then used for further experiments. For monocyte experiments, autologous NK cell-monocytes or TIL-monocytes were used. NK cells/TIL were isolated and pre-treated with 0.5 μg/mL AUF, as described above, and co-cultured with unstimulated at the ratio, 1:2 M:NK, or stimulated monocytes at the ratio, 1:1 M:NK, if not indicated otherwise. Stimulated monocytes were activated with 100 ng/ml PMA for 1 min, washed and added at indicated ratio, the number of NK cell/TIL was kept constant. As control, H2O2 was used at indicated concentration. Cells were co-cultured for 2 h and then effector cells were stained for intracellular ROS (see flow cytometry) or used as effector cells in Cr^51 release assay (E:T ratio 10:1).
For detection of intracellular ROS levels, for NK cells CellROX™ Deep Red Reagent (Invitrogen) were used. Briefly, NK cells were stained with 2.5 μM CellROX solution in RPMI for 30 min at 37° C. and then stained for flow cytometry with anti-CD56 and anti-CD3 (both Biolegend).

CC(=O)OC[C@H]1O[C@@H]([S-])[C@H](OC(C)=O)[C@@H](OC(C)=O)[C@@H]1OC(C)=O.CCP(CC)CC.[Au+] [AUF, Auranofin]
Activation of Nrf2 (Nrf2): strong activator of Nfr2 | Differences in NK cell surface markers with and without AUF pre-treatment (NK cells [1]; DNAM-1, granzyme B, perforin, CD57, CD69, NKG2A, NKG2D, NKp40, NKp46): few differences | Frequency of NK cells expressing CD16 after exposure to H2O2 (NK cells [1]; untreated compared to AUF pre-treated NK cells): significant decrease in frequency of untreated NK cells expressing CD16 | NKp30 expression on NK cells (NK cells [1]; upon exposure to H2O2): increased expression | DNAM-1 and NKp46 on NK cells (NK cells [1]; with exposure to H2O2): reduced frequency of positive NK cells and/or reduced cell surface levels | DNAM-1, CD69 and NKG2D on NK cells (NK cells [1]; without exposure to H2O2): reduced frequency of positive NK cells and/or reduced cell surface levels | Difference in protective effect on different NK cell functions (CD107a degranulation vs IFNγ expression) (NK cells [2]; during oxidative stress, 6 h co-culture with K562): no difference | Degranulation capacity (CD107a expression) of NK cells after co-culture with K562 (NK cells [2]): protective effect was observed both in the presence or absence of H2O2 | Degranulation capacity (CD107a expression) of NK cells after co-culture with K562 (NK cells [2]; listed as Auranofin): increased degranulation capacity | Toxicity / cell death in cancer cells (cancer cells): toxic and induce cell death | Intracellular fluorescence of the ROS indicator in NK cells vs controls (NK cells [3]; 72 h after AUF removal): no differences | Intracellular fluorescence of the ROS indicator in NK cells (NK cells [3]; H2O2 challenge 0-48 h after AUF removal): significantly lower intracellular fluorescence of the ROS indicator | Intracellular ROS levels in NK cells and TIL after H2O2 treatment (NK cells [3]; up to 72 h after compound removal): decreased intracellular ROS levels | Intracellular ROS levels in NK cells (NK cells [3]; without addition of H2O2): significantly reduced intracellular ROS levels
